For one data set, the system named is NCI-H23. Nature of the data set: Antiproliferative activity against human NCI-H23 cells incubated for 48 hrs by MTT assay. It is filed as functional, cell-based. Particulars: NCI-H23, 48 h. Background: Tetrazolium assays rely on reduction of a dye to a coloured formazan, in cell work by metabolically active cells.
Data set [1] concerns B16-F10. Nature of the data set: Induction of apoptosis in mouse B16-F10 cells assessed as viable cells at 0.5 nM incubated for 12 hrs by Annexin V-FITC/PI staining based flow cytometry (reference value: 93.6 %). Particulars: read-out: Activity. It is filed as functional. (Flow cytometry measures light scatter and fluorescence of single cells or particles in a stream.)
Data set [2] deals with B16-F10. Nature of the data set: Induction of apoptosis in mouse B16-F10 cells assessed as early apoptotic cells at 2 nM incubated for 12 hrs by Annexin V-FITC/PI staining based flow cytometry (reference value: 3.81 %). Format: functional.
Data set [3] has as its system B16-F10. Nature of the data set: Antitumor activity against mouse B16-F10 cells xenografted in C57 mouse at 3.5 mg/kg, ip qd for 12 days in presence of NP-19 relative to control. It is filed as functional. The conditions noted are these: B16-F10, 288 h, time 12 day, read-out: TGI.
The nature of data set [4]: Toxicity in C57 mouse xenografted with mouse B16-F10 cells assessed as morphological abnormality in liver at 3.5 mg/kg, ip qd for 12 days in presence of NP-19 by H and E staining based analysis. Format: organism-based. Particulars: in vivo, 288 h, time 12 day.
Data set [5] in a line: Toxicity in C57 mouse xenografted with mouse B16-F10 cells assessed as MCV level at 3.5 mg/kg, ip qd for 12 days in presence of NP-19 by biochemical analysis (reference value: 15.800 to 48.900 fL). It is filed as organism-based. Particulars: in vivo, 288 h, time 12 day.

As usually defined, the IC50 is the point on the concentration scale where inhibition reaches its midpoint. Take `Cc1nc(N(C)c2ccc3c(ccn3C)c2)c2sccc2n1`: inhibition in the data set on NCI-H23 was half-maximal at 8.94 nM (IC50). For the same compound, the viability at 0.0005 µM in the data set on B16-F10 [1] was 80.1%. Further, the Activity in the data set with B16-F10 [2] was 14.2%; in data set [4], “Non-Toxic”; in data set [5], 15.7 fL. Besides, in the data set on B16-F10 [3], the inhibition in vivo at 3.5 mg/kg worked out at 75.7%.

These data come from ChEMBL document CHEMBL5614416, “Discovery of novel thiophene[3,2-d]pyrimidine-based tubulin inhibitors with enhanced antitumor efficacy for combined use with anti-pd-l1 immunotherapy in melanoma” (Eur J Med Chem, 2024).
